# Laboratory results: patent US20250353891A1 (MEDIMMUNE LIMITED, priority 2022, published 2025)
# pEC50: −log10 of the molar value. Starred links: 1 amine or outer side, 2 acyl side, 3 side chain; linkers in the order of their positions; H or OH if unused. Non-standard residues stand in square brackets, D forms with d. Residues, ends and D or L forms follow the SMILES beside them. Groups on a side chain read outwards from the residue. *: point of attachment. C18 diacid = O=C(O)CCCCCCCCCCCCCCCCC(=O)*; γGlu = O=C(O)[C@H](CCC(=O)[*:2])N[*:1]; αMeF = C[C@](N)(Cc1ccccc1)C(=O)O; AEEA = NCCOCCOCC(=O)O; Aib = CC(C)(N)C(=O)O
# Tests used:
# [1] = target: human GLP-1 receptor (hGLP-1R) (Homo sapiens, UniProt P43220); assay: cAMP production (HTRF) in CHO cells expressing hGLP-1R; assay type: cell-based; set-up: expressed in transfected cells; details: for pEC50: Table 6, peptides modified at position 17, cAMP in CHO hGLP-1R cells, geometric mean, read-out: hGLP-1R EC50; for % Relative Potency Ratio: Table 6, % GLP-1R activity relative to GLP-1 / % GlucR activity relative to glucagon
# Procedure, shortened: (§1)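 Potency values represent EC50 from 4-parameter logistic curves of HTRF % Delta F signal. Receptor-expressing CHO cells (hGCGR 2×10^5 cells/mL, hGLP-1R 1×10^5 cells/mL) were exposed for 30 min at room temperature before two-step cAMP detection.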
# [2] = target: human glucagon receptor (hGCGR) (Homo sapiens, UniProt P47871); assay: cAMP production (HTRF) in CHO cells expressing hGCGR; assay type: cell-based; set-up: expressed in transfected cells; details: Table 6, peptides modified at position 17; cAMP in CHO hGCGR cells; geometric mean; read-out: hGluc-R EC50
# Procedure, shortened: as §1
# Chain of human glucagon receptor (hGCGR) (P47871 26-477): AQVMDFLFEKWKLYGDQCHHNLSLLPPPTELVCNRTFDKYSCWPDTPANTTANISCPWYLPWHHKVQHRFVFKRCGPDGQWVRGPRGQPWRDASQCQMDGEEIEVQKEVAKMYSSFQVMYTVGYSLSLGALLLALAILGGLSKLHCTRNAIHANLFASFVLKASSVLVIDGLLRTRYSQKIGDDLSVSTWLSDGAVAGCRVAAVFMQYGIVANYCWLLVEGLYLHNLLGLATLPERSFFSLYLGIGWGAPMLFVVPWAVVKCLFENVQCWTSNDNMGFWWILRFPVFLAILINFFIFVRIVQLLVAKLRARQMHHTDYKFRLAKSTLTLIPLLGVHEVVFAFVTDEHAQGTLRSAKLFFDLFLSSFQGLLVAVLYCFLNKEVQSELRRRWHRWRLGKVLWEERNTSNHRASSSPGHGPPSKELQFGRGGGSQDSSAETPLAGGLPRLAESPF
# Chain of human GLP-1 receptor (hGLP-1R) (P43220 24-463): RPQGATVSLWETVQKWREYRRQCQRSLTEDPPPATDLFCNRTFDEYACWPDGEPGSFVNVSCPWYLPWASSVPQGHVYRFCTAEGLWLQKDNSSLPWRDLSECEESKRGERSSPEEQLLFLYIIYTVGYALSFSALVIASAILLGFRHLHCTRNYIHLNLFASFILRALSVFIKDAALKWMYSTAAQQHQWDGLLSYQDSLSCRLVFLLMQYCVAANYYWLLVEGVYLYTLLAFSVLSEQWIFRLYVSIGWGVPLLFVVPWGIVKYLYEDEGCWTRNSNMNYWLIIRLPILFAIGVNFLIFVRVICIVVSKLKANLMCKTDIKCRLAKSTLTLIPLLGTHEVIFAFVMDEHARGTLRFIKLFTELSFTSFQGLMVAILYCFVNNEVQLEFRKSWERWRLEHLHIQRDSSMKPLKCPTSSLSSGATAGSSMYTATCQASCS
SMILES,pEC50 [1],% Relative Potency Ratio [1],pEC50 [2]
CC(C)C[C@H](NC(=O)[C@H](CC(C)C)NC(=O)[C@H](Cc1c[nH]c2ccccc12)NC(=O)[C@H](CCCNC(=N)N)NC(=O)[C@@H](NC(=O)[C@H](Cc1ccccc1)NC(=O)[C@H](CC(=O)O)NC(=O)[C@H](CCC(N)=O)NC(=O)[C@H](C)NC(=O)[C@H](CCCNC(=N)N)NC(=O)[C@H](CCCCNC(=O)COCCOCCNC(=O)COCCOCCNC(=O)CC[C@H](NC(=O)CCCCCCCCCCCCCCCCC(=O)O)C(=O)O)NC(=O)[C@@H](NC(=O)[C@H](CC(=O)O)NC(=O)[C@H](CC(C)C)NC(=O)[C@](C)(Cc1ccccc1)NC(=O)[C@H](CCCCN)NC(=O)[C@H](CO)NC(=O)[C@@H](NC(=O)[C@H](CC(=O)O)NC(=O)[C@H](CO)NC(=O)[C@@H](NC(=O)[C@H](Cc1ccccc1)NC(=O)[C@@H](NC(=O)CNC(=O)[C@H](CCC(N)=O)NC(=O)C(C)(C)NC(=O)[C@@H](N)Cc1c[nH]cn1)[C@@H](C)O)[C@@H](C)O)C(C)C)[C@@H](C)O)C(C)C)C(=O)N[C@@H](CCC(=O)O)C(=O)N[C@@H](C)C(=O)NCC(=O)O [Peptide 186] (H-H[Aib]QGTFTSDVSK[αMeF]LDTK([AEEA-AEEA-γGlu-C18 diacid])RAQDFVRWLLEAG-OH; N-terminus assumed),10.35,4.4,10.00
CC(C)C[C@H](NC(=O)[C@H](Cc1c[nH]c2ccccc12)NC(=O)[C@H](CCCNC(=N)N)NC(=O)[C@@H](NC(=O)[C@H](Cc1ccccc1)NC(=O)[C@H](CC(=O)O)NC(=O)[C@H](CCC(N)=O)NC(=O)[C@H](C)NC(=O)[C@H](CCCNC(=N)N)NC(=O)[C@H](CCCCNC(=O)COCCOCCNC(=O)COCCOCCNC(=O)CC[C@H](NC(=O)CCCCCCCCCCCCCCCCC(=O)O)C(=O)O)NC(=O)[C@@H](NC(=O)[C@H](CC(=O)O)NC(=O)[C@H](CC(C)C)NC(=O)[C@](C)(Cc1ccccc1)NC(=O)[C@H](CCCCN)NC(=O)[C@H](CO)NC(=O)[C@@H](NC(=O)[C@H](CC(=O)O)NC(=O)[C@H](CO)NC(=O)[C@@H](NC(=O)[C@H](Cc1ccccc1)NC(=O)[C@@H](NC(=O)CNC(=O)[C@H](CCC(N)=O)NC(=O)C(C)(C)NC(=O)[C@@H](N)Cc1c[nH]cn1)[C@@H](C)O)[C@@H](C)O)C(C)C)[C@@H](C)O)C(C)C)C(=O)N[C@@H](CC(C)C)C(=O)NC(C)(C)C(=O)N[C@@H](CCC(=O)O)C(=O)O [Peptide 192] (H-H[Aib]QGTFTSDVSK[αMeF]LDTK([AEEA-AEEA-γGlu-C18 diacid])RAQDFVRWLL[Aib]E-OH; N-terminus assumed),9.97,4.2,9.64
CC(C)C[C@H](NC(=O)[C@H](Cc1c[nH]c2ccccc12)NC(=O)[C@H](CCCNC(=N)N)NC(=O)[C@@H](NC(=O)[C@H](Cc1ccccc1)NC(=O)[C@H](CC(=O)O)NC(=O)[C@H](CCCNC(=N)N)NC(=O)[C@H](C)NC(=O)[C@H](CCCNC(=N)N)NC(=O)[C@H](CCCCNC(=O)COCCOCCNC(=O)COCCOCCNC(=O)CC[C@H](NC(=O)CCCCCCCCCCCCCCCCC(=O)O)C(=O)O)NC(=O)[C@@H](NC(=O)[C@H](CC(=O)O)NC(=O)[C@H](CC(C)C)NC(=O)[C@](C)(Cc1ccccc1)NC(=O)[C@H](CCCCN)NC(=O)[C@H](CO)NC(=O)[C@@H](NC(=O)[C@H](CC(=O)O)NC(=O)[C@H](CO)NC(=O)[C@@H](NC(=O)[C@H](Cc1ccccc1)NC(=O)[C@@H](NC(=O)CNC(=O)[C@H](CCC(N)=O)NC(=O)C(C)(C)NC(=O)[C@@H](N)Cc1c[nH]cn1)[C@@H](C)O)[C@@H](C)O)C(C)C)[C@@H](C)O)C(C)C)C(=O)N[C@@H](CC(C)C)C(=O)NC(C)(C)C(=O)N[C@@H](CCC(=O)O)C(=O)O [Peptide 197] (H-H[Aib]QGTFTSDVSK[αMeF]LDTK([AEEA-AEEA-γGlu-C18 diacid])RARDFVRWLL[Aib]E-OH; N-terminus assumed),10.19,3.5,9.95
CC[C@H](C)[C@H](NC(=O)[C@H](Cc1ccccc1)NC(=O)[C@H](CC(=O)O)NC(=O)[C@H](CCCNC(=N)N)NC(=O)[C@H](C)NC(=O)[C@H](CCCNC(=N)N)NC(=O)[C@H](CCCCNC(=O)COCCOCCNC(=O)COCCOCCNC(=O)CC[C@H](NC(=O)CCCCCCCCCCCCCCCCC(=O)O)C(=O)O)NC(=O)[C@@H](NC(=O)[C@H](CC(=O)O)NC(=O)[C@H](CC(C)C)NC(=O)[C@](C)(Cc1ccccc1)NC(=O)[C@H](CCCCN)NC(=O)[C@H](CO)NC(=O)[C@@H](NC(=O)[C@H](CC(=O)O)NC(=O)[C@H](CO)NC(=O)[C@@H](NC(=O)[C@H](Cc1ccccc1)NC(=O)[C@@H](NC(=O)CNC(=O)[C@H](CCC(N)=O)NC(=O)C(C)(C)NC(=O)[C@@H](N)Cc1c[nH]cn1)[C@@H](C)O)[C@@H](C)O)C(C)C)[C@@H](C)O)C(=O)N[C@@H](C)C(=O)N[C@@H](Cc1c[nH]c2ccccc12)C(=O)N[C@@H](CC(C)C)C(=O)N[C@@H](CC(C)C)C(=O)NC(C)(C)C(=O)N[C@@H](CCC(=O)O)C(=O)O [Peptide 198] (H-H[Aib]QGTFTSDVSK[αMeF]LDTK([AEEA-AEEA-γGlu-C18 diacid])RARDFIAWLL[Aib]E-OH; N-terminus assumed),9.67,2.8,9.52

# Compounds with a higher pEC50 [1], results first:
pEC50 [1],% Relative Potency Ratio [1],pEC50 [2],SMILES
10.95,7.7,10.35,CC(C)C[C@H](NC(=O)[C@H](Cc1c[nH]c2ccccc12)NC(=O)[C@H](CCCNC(=N)N)NC(=O)[C@@H](NC(=O)[C@H](Cc1ccccc1)NC(=O)[C@H](CC(=O)O)NC(=O)[C@H](CCCNC(=N)N)NC(=O)[C@H](C)NC(=O)[C@H](CCCNC(=N)N)NC(=O)[C@H](CCCCNC(=O)COCCOCCNC(=O)COCCOCCNC(=O)CC[C@H](NC(=O)CCCCCCCCCCCCCCCCC(=O)O)C(=O)O)NC(=O)[C@@H](NC(=O)[C@H](CC(=O)O)NC(=O)[C@H](CC(C)C)NC(=O)[C@](C)(Cc1ccccc1)NC(=O)[C@H](CCCCN)NC(=O)[C@H](CO)NC(=O)[C@@H](NC(=O)[C@H](CC(=O)O)NC(=O)[C@H](CO)NC(=O)[C@@H](NC(=O)[C@H](Cc1ccccc1)NC(=O)[C@@H](NC(=O)CNC(=O)[C@H](CCC(N)=O)NC(=O)C(C)(C)NC(=O)[C@@H](N)Cc1c[nH]cn1)[C@@H](C)O)[C@@H](C)O)C(C)C)[C@@H](C)O)C(C)C)C(=O)N[C@@H](CC(C)C)C(=O)N[C@@H](CCC(=O)O)C(=O)NC(C)(C)C(=O)NCC(=O)O [Peptide 189] (H-H[Aib]QGTFTSDVSK[αMeF]LDTK([AEEA-AEEA-γGlu-C18 diacid])RARDFVRWLLE[Aib]G-OH; N-terminus assumed)
10.57,17.6,9.62,CC[C@H](C)[C@H](NC(=O)[C@H](CC(C)C)NC(=O)[C@H](Cc1c[nH]c2ccccc12)NC(=O)[C@H](CCCNC(=N)N)NC(=O)[C@@H](NC(=O)[C@H](Cc1ccccc1)NC(=O)[C@H](CC(=O)O)NC(=O)[C@H](CCC(N)=O)NC(=O)[C@H](C)NC(=O)[C@H](CCCNC(=N)N)NC(=O)[C@H](CCCCNC(=O)COCCOCCNC(=O)COCCOCCNC(=O)CC[C@H](NC(=O)CCCCCCCCCCCCCCCCC(=O)O)C(=O)O)NC(=O)[C@H](CO)NC(=O)[C@H](CC(=O)O)NC(=O)[C@H](CC(C)C)NC(=O)[C@](C)(Cc1ccccc1)NC(=O)[C@H](CCCCN)NC(=O)[C@H](CO)NC(=O)[C@@H](NC(=O)[C@H](CC(=O)O)NC(=O)[C@H](CO)NC(=O)[C@@H](NC(=O)[C@H](Cc1ccccc1)NC(=O)[C@@H](NC(=O)CNC(=O)[C@H](CCC(N)=O)NC(=O)C(C)(C)NC(=O)[C@@H](N)Cc1c[nH]cn1)[C@@H](C)O)[C@@H](C)O)C(C)C)C(C)C)C(=O)NC(C)(C)C(=O)N[C@@H](CCC(=O)O)C(=O)O [Peptide 196] (H-H[Aib]QGTFTSDVSK[αMeF]LDSK([AEEA-AEEA-γGlu-C18 diacid])RAQDFVRWLI[Aib]E-OH; N-terminus assumed)
10.50,11.3,9.74,CC[C@H](C)[C@H](NC(=O)[C@H](Cc1ccccc1)NC(=O)[C@H](CC(=O)O)NC(=O)[C@H](CCCNC(=N)N)NC(=O)[C@H](C)NC(=O)[C@H](CCCNC(=N)N)NC(=O)[C@H](CCCCNC(=O)COCCOCCNC(=O)COCCOCCNC(=O)CC[C@H](NC(=O)CCCCCCCCCCCCCCCCC(=O)O)C(=O)O)NC(=O)[C@@H](NC(=O)[C@H](CC(=O)O)NC(=O)[C@H](CC(C)C)NC(=O)[C@](C)(Cc1ccccc1)NC(=O)[C@H](CCCCN)NC(=O)[C@H](CO)NC(=O)[C@@H](NC(=O)[C@H](CC(=O)O)NC(=O)[C@H](CO)NC(=O)[C@@H](NC(=O)[C@H](Cc1ccccc1)NC(=O)[C@@H](NC(=O)CNC(=O)[C@H](CCC(N)=O)NC(=O)C(C)(C)NC(=O)[C@@H](N)Cc1c[nH]cn1)[C@@H](C)O)[C@@H](C)O)C(C)C)[C@@H](C)O)C(=O)N[C@@H](C)C(=O)N[C@@H](Cc1c[nH]c2ccccc12)C(=O)N[C@@H](CC(C)C)C(=O)N[C@@H](CC(C)C)C(=O)N[C@@H](CCC(=O)O)C(=O)NC(C)(C)C(=O)NCC(=O)O [Peptide 199] (H-H[Aib]QGTFTSDVSK[αMeF]LDTK([AEEA-AEEA-γGlu-C18 diacid])RARDFIAWLLE[Aib]G-OH)
